Test results: paper PMC9146984, “A Novel Proline-Rich Cathelicidin from the Alpaca Vicugna pacos with Potency to Combat Antibiotic-Resistant Bacteria: Mechanism of Action and the Functional Role of the C-Terminal Region” (Membranes, 2022)
≈ marks a conversion by molar mass, not a printed value. Where a SMILES comes first, the peptide text is derived from it.

Key:
[1] = tested on: S. aureus MDR CI 119; assay: Antimicrobial assay (MIC); type: cell-based, Staphylococcus aureus; details: Mueller-Hinton broth supplemented with 0.9% NaCl
Method: (§1) The reduction of resazurin to resorufin was measured.

[2] = tested on: S. aureus ATCC 29213; assay: Antimicrobial assay (MIC); type: cell-based, Staphylococcus aureus; details: Mueller-Hinton broth supplemented with 0.9% NaCl
Method: as §1

[3] = tested on: S. aureus ATCC 25923; assay: Antimicrobial assay (MIC); type: cell-based, Staphylococcus aureus; details: Mueller–Hinton broth supplemented with 0.9% NaCl
Method: as §1

[4] = tested on: S. aureus ATCC 6538P; assay: Antimicrobial assay (MIC); type: cell-based, Staphylococcus aureus; details: Mueller-Hinton broth supplemented with 0.9% NaCl
Method: as §1

[5] = Cytotoxicity (MTT assay); type: cell-based, human; details: human
Method: Hemolytic activity of the peptides was tested against the fresh suspension of human red blood cells (hRBC) using the hemoglobin release assay as described previously. Two experiments were performed with the hRBC from blood samples of independent donors. The quantitative data were represented as average means with standard deviations. The colorimetric 3-(4,5-dimethylthiazol-2-yl)-2,5-diphenyltetrazolium bromide (MTT) dye reduction assay was used to determine the cytotoxicity of the peptides against transformed human embryonic kidney cells (HEK293T). 10^4 cells per well in Dulbecco’s modified Eagle’s medium (DMEM/F12) supplemented with 10% fetal bovine serum (FBS; Invitrogen, Waltham, MA, USA) were placed into 96-well plates and then cultured in the CO2-incubator (5% CO2, 37 °C). After the media were removed, the peptides were dissolved in 100 µL of the same medium and added to cell cultures at different final concentrations. 20 h later, 20 μL of MTT (5 mg/mL; Sigma, St. Louis, MO, USA) was added to each well, and the plates were incubated for 4 h at 37 °C. Then, the media were discarded and a 100 µL dimethyl sulfoxide-isopropanol mixture at a ratio of 1:1 (v/v) was added to each well to dissolve the crystallized formazan. The absorbance at 570 nm was measured by a microplate reader AF2200 (Eppendorf, Hamburg, Germany). The optical density in the wells containing cells cultured without the peptides was assumed to represent 100% cell viability. Two independent experiments were performed for each peptide.

[6] = tested on: E. coli MDR CI 1057
Method: (§2) Bacterial test cultures were grown in the Mueller-Hinton broth (MH; Sigma, St. Louis, MO, USA) at 37 °C to mid-log phase and then diluted with the 2× MH medium supplemented with 1.8% NaCl or without salt so that to reach a final cell concentration of 10^6 CFU/mL. 50 µL of the obtained bacterial suspension were added to aliquots of 50 µL of the peptide solutions serially diluted with sterilized 0.1% bovine serum albumin (BSA) in 96-well flat-bottom polystyrene microplates (Eppendorf #0030730011, Hamburg, Germany). […] To verify MIC values, the respiratory activity of the bacteria was determined. Briefly, 20 µL of 0.1 mg/mL resazurin (a redox indicator; Sigma, St. Louis, MO, USA) was added to the wells after 24 h of incubation, and the plate was incubated for an additional two hours. The reduction of resazurin to resorufin was measured. […] The results were expressed as the median values determined based on at least three independent experiments performed in triplicate.
(§3) Resistance induction experiments were performed using the previously described method. Briefly, on day one, the overnight culture of wild-type bacteria was diluted with the 2× MH broth supplemented with 1.8% NaCl to reach a final cell concentration of 10^6 CFU/mL. 50 µL of the obtained bacterial suspension were added to aliquots of 50 µL of the peptide solutions serially diluted with the sterilized 0.1% BSA in 96-well flat-bottom polystyrene microplates. After incubation for 20 ± 2 h at 37 °C and 950 rpm, MICs were determined as described above. For each subsequent daily transfer, 2–4 μL of the inoculum taken from the first well containing a sub-inhibitory drug concentration were diluted with 2 mL of the fresh 2× MH broth supplemented with 1.8% NaCl. […] 14 repeated passages in the presence of antimicrobial agents were made for each bacterial strain during the experiment. Bacteria that grew at the highest concentration of AMPs on the final day were passaged a further 3 times on drug-free agar plates before determining the final MIC value.

[7] = tested on: VicBac[1–22]-resistant E. coli MDR 1057 strain; details: Mueller-Hinton broth supplemented with 0.9% NaCl; strain selected 14 days with VicBac[1-22]; cross-resistance
Method: as §2, §3

[8] = tested on: human cells; assay: Cytokine response (multiplex xMAP immunoassay), cell type not given; type: cell-based; details: 2 µM peptide, 24 h, control 1813 pg/mL
Method: Acute monocytic leukemia THP-1 line (ATCC TIB-202) was cultured in complete RPMI 1640 medium (Invitrogen, Waltham, MA, USA) containing 10% FBS, 1× antibiotic-antimycotic solution (Invitrogen, Waltham, MA, USA), and 0.05 mM β-mercaptoethanol, in the CO2-incubator (5% CO2, 37 °C). THP-1 cells were differentiated into proinflammatory macrophages (MΦ1) according to the previously reported protocol. Primary peripheral blood mononuclear cells (PBMC) collected from a healthy donor were purchased from American Type Culture Collection (ATCC PCS-800-011), thawed, and seeded into a 96-well plate one day prior to the experiment at a density of 2 × 10^5 cells/well. […] 27 analytes were measured at a protein level by multiplex xMAP technology using the MILLIPLEX MAP Human Cytokine/Chemokine Magnetic Bead Immunology Panel kit (HCYTOMAG-60K-27, Merck, Darmstadt, Germany): eotaxin-1/CCL11, TGFα, GM-CSF, IFNα2, IFNγ, IL-10, IL-12p40, IL-12p70, IL-13, IL-15, sCD40L, IL-17A, IL-1RA, IL-1α, IL-9, IL-1β, IL-2, IL-3, IL-4, IL-5, IL-6, IL-7, IL-8/CXCL8, IP-10/CXCL10, RANTES/CCL5, TNFα, TNFβ. Multiplex-based assay read-out was performed using the MAGPIX system (Merck) with the xPONENT 4.2 software (Merck, Darmstadt, Germany) in accordance with the manufacturer’s instruction with overnight incubation of the samples with primary antibodies. […]

What does the source list for `CC[C@H](C)[C@H](NC(=O)[C@H](CCCNC(=N)N)NC(=O)[C@@H](N)CCCNC(=N)N)C(=O)N[C@@H](CCCNC(=N)N)C(=O)N[C@@H](CCCNC(=N)N)C(=O)N1CCC[C@H]1C(=O)N[C@@H](CCCNC(=N)N)C(=O)N[C@@H](CC(C)C)C(=O)N1CCC[C@H]1C(=O)N[C@@H](CCCNC(=N)N)C(=O)N1CCC[C@H]1C(=O)N[C@@H](CCCNC(=N)N)C(=O)N[C@H](C(=O)N1CCC[C@H]1C(=O)N[C@@H](CCCNC(=N)N)C(=O)N1CCC[C@H]1C(=O)N[C@@H](CCCNC(=N)N)C(=O)N[C@H](C(=O)N1CCC[C@H]1C(=O)N1CCC[C@H]1C(=O)N[C@@H](CCCNC(=N)N)C(=O)N[C@H](C(=O)N1CCC[C@H]1C(=O)N[C@@H](CCCNC(=N)N)C(=O)N1CCC[C@H]1C(=O)N[C@H](C(=O)N[C@@H](CC(C)C)C(=O)N1CCC[C@H]1C(=O)N1CCC[C@H]1C(=O)N1CCC[C@H]1C(=O)N[C@@H](CCCNC(=N)N)C(=O)N[C@H](C(=O)N1CCC[C@H]1C(=O)N[C@@H](Cc1ccccc1)C(=O)N1CCC[C@H]1C(=O)N[C@@H](CCCNC(=N)N)C(=O)N[C@@H](Cc1ccccc1)C(=O)N1CCC[C@H]1C(=O)N[C@@H](CCCNC(=N)N)C(N)=O)C(C)C)C(C)C)[C@@H](C)CC)[C@@H](C)CC)C(C)C` [VicBac[1-39]] (H-RRIRRPRLPRPRVPRPRIPPRIPRPVLPPPRVPFPRFPR-NH2; N-terminus assumed)?
MIC, S. aureus MDR CI 119 [1]: > 32 µM; MIC, S. aureus ATCC 29213 [2]: > 32 µM; inhibition of S. aureus ATCC 25923 [3]: could not inhibit; MIC, S. aureus ATCC 6538P [4]: 0.25 µM (≈ 1.2 µg/mL); IC50 at 20 h [5]: ~100 µM; MIC, E. coli MDR CI 1057 ([6]; Mueller-Hinton broth supplemented with 0.9% NaCl (Figure 3A)): 1 µM (≈ 4.82 µg/mL); Minimum inhibitory concentration E.coli MDR 1057 14 days w/o AMP ([6]; Mueller-Hinton broth supplemented with 0.9% NaCl, after 14 passages without antimicrobial agents): 1 µM (≈ 4.82 µg/mL); Minimum inhibitory concentration E.coli MDR 1057 0 days ([6]; Mueller-Hinton broth supplemented with 0.9% NaCl, before passages): 1 µM (≈ 4.82 µg/mL); Minimum inhibitory concentration E.coli MDR 1057 14 days with VicBac [1-22] [7]: 2 µM; Production of IL-8/CXCL8 [8]: 1034 pg/mL
